Source: US5869512A, “Azole compounds with antimycotic activity for human and veterinary use” (Zambon Group S.p.A, priority 1996, dated 1999)
Converted amounts (≈) assume the structure as drawn. Read-outs that look alike come from different tables or passages of the source.

How the values were obtained:
[1] = test system: T. mentagrophytes; assay: In vitro growth inhibition, macromethod of scalar broth dilution (SDB); assay type: cell-based, Trichophyton mentagrophytes; details: for MIC: Trichophyton mentagrophytes, 168 h, read-out: MIC (minimum inhibiting concentration)
From the text: (§1) A) The activity inhibiting the growth of mycetes has been evaluated by the macromethods of the scalar broth dilution in geometrical progression (M. R. McGinnis and M. G. Rinaldi, "Antimycotic drugs: mechanisms of action, drug resistance, susceptibility testing and assay of activity in biological fluids", in Antibiotic in Laboratory Medicine, Ed. V. Lorian, Baltimore 1991).
(§2) As growing medium Yeast Nitrogen Base broth (YNB) and Sabouraud Dextrose broth (SDB) were employed for yeasts and moulds respectively.
(§3) Fluconazole has been taken as reference compound.

[2] = test system: A. fumigatus; assay: as above; assay type: cell-based, Aspergillus fumigatus; details: for MIC: Aspergillus fumigatus, 168 h, read-out: MIC (minimum inhibiting concentration)
From the text: as §1, §2, §3

[3] = test system: Candida albicans 1040; assay: In vivo oral antimycotic effectiveness, systemic candidiasis; design: species or system mice (Albino Charles River, CD1 strain); details: mice, oral at 0, 4, 24, 48 hours after i.v. infection; for PD50 (medium protective dose) at the 14th day: 20160 min; for ED50: Candida albicans, 1040, in Mus musculus, po, 336 h, read-out: PD50 (medium protective dose) at the 14th day
Protocol: (§4) Albino Charles River mice (CD1 strain) weighing from 23 to 25 g, normally feed with a standard diet and water ad libitum were employed.
(§5) Each animal has been intravenously (for systemic candidiasis, crytpococcosis, aspergillosis), intracranially (for intracranial cryptococcosis) or nasally (for pulmonary aspergillosis) treated with a suspension (0.2 ml containing 2.5×10^7 cells/ml) of the due microorganism in physiological. Right after the injection and after 4, 24 and 48 hours the animals has been orally administered (in 2% Arabic gum) geometrically progressive increasing doses of the compound under test. An infected group has been used as control.
(§6) The mortality monitoring of the mice has been prolonged up to 14 days. The medium protective dose (PD50) has been calculated by the probits analysis (L. Lison--"Statistica applicata alla biologia sperimentale. La programmazione dell'esperimento e l'analisi dei risultati"--Casa Editrice Ambrosiana, 1961) on the basis of the number of animals survived at each concentration.
(§7) Fluconazole and Itraconazole were taken as reference compounds.

[4] = test system: C. neoformans; assay: In vitro growth inhibition, macromethod of scalar broth dilution (YNB); assay type: cell-based, Cryptococcus neoformans
From the text: as §1, §2, §3

[5] = test system: C. albicans 1040; assay: as above; assay type: cell-based, Candida albicans
From the text: as §1, §2, §3

[6] = test system: A. flavusalis; assay: In vitro antimycotic activity, dilution in agar (mycetes); assay type: cell-based, Aspergillus flavus; details: casitone agar pH 7, 32° C., 1-10 days
Protocol: (§8) B) The activity inhibiting the growth of yeasts and filamentosous fungi has been evaluated by the method of the dilution in agar. The minimum inhibiting concentration at 50% (MIC50) was measured by incorporating into the growing medium decreasing concentrations of the tested compounds thus yielding scalar concentration on basis 2, from […].
(§9) As growing medium casitone agar buffered at pH=7 (casitone 9 g, glucose 20 g, sodium citrate 10 g, leaven extract 5 g, agar 18 g, potassium biphosphate 0.54 g, sodium biphosphate 3.34 g, distilled water 1,000 ml) was employed.
(§10) For evaluating the activity against the mycetes the growing mediums containing the scalar concentrations of the compounds to be tested were inoculated with 1 μl of a suspension of 5×10^5 of spores/ml (conides or endospores) obtained from duly sporulated coltures. The inoculated growing mediums were incubated at 32° C. and the measurements were effected after 1, 2, 3, 5, 7 and 10 days.
(§11) Fluconazole, Itraconazole and Amphotericin B have been taken as reference compounds.

[7] = test system: Trichoderma; assay: as above; assay type: cell-based; details: casitone agar pH 7, 32° C., 1-10 days
Protocol: as §8, §9, §10, §11

[8] = test system: Pseudoallescheria; assay: as above; assay type: cell-based; details: casitone agar pH 7, 32° C., 1-10 days
Protocol: as §8, §9, §10, §11

[9] = test system: Mucor; assay: as above; assay type: cell-based; details: casitone agar pH 7, 32° C., 1-10 days
Protocol: as §8, §9, §10, §11

[10] = test system: Acremonium; assay: as above; assay type: cell-based; details: casitone agar pH 7, 32° C., 1-10 days
Protocol: as §8, §9, §10, §11

[11] = test system: A. fumigatus; assay: as above; assay type: cell-based, Aspergillus fumigatus; details: casitone agar pH 7, 32° C., 1-10 days
Protocol: as §8, §9, §10, §11

[12] = test system: A. alliaceus; assay: as above; assay type: cell-based, Aspergillus alliaceus; details: casitone agar pH 7, 32° C., 1-10 days
Protocol: as §8, §9, §10, §11

[13] = test system: A. niger; assay: as above; assay type: cell-based, Aspergillus niger; details: casitone agar pH 7, 32° C., 1-10 days
Protocol: as §8, §9, §10, §11

[14] = test system: A. corymbifera; assay: as above; assay type: cell-based, Absidia corymbifera; details: casitone agar pH 7, 32° C., 1-10 days
Protocol: as §8, §9, §10, §11

[15] = test system: F. verticilloides; assay: as above; assay type: cell-based, Fusarium verticilloides; details: casitone agar pH 7, 32° C., 1-10 days
Protocol: as §8, §9, §10, §11

[16] = test system: F. proliferatum; assay: as above; assay type: cell-based, Fusarium proliferatum; details: casitone agar pH 7, 32° C., 1-10 days
Protocol: as §8, §9, §10, §11

[17] = test system: R. pusillus; assay: as above; assay type: cell-based, Rhyzomucor pusillus; details: casitone agar pH 7, 32° C., 1-10 days
Protocol: as §8, §9, §10, §11

[18] = test system: A. terreus; assay: as above; assay type: cell-based, Aspergillus terreus; details: casitone agar pH 7, 32° C., 1-10 days
Protocol: as §8, §9, §10, §11

[19] = test system: Cryptococcus neoformans ISM; assay: In vivo oral antimycotic effectiveness, intracranial cryptococcosis; design: species or system mice (Albino Charles River, CD1 strain); details: 336 h, mice, oral at 0, 4, 24, 48 hours after intracranial infection, read-out: PD50 (medium protective dose) at the 14th day
Protocol: as §4, §5, §6, §7

[20] = test system: Cryptococcus neoformans 3443; assay: In vivo oral antimycotic effectiveness, systemic cryptococcosis; design: species or system mice (Albino Charles River, CD1 strain); details: 336 h, mice, oral at 0, 4, 24, 48 hours after i.v. infection, read-out: PD50 (medium protective dose) at the 14th day
Protocol: as §4, §5, §6, §7

[21] = test system: Aspergillus fumigatus MOL-4; assay: In vivo oral antimycotic effectiveness, pulmonary aspergillosis; design: species or system mice (Albino Charles River, CD1 strain); details: MOL4, 336 h, mice, oral at 0, 4, 24, 48 hours after nasal infection, read-out: PD50 (medium protective dose) at the 14th day
Protocol: as §4, §5, §6, §7

[22] = test system: Aspergillus fumigatus MOL-4; assay: In vivo oral antimycotic effectiveness, systemic aspergillosis; design: species or system mice (Albino Charles River, CD1 strain); details: MOL4, 336 h, mice, oral at 0, 4, 24, 48 hours after i.v. infection, read-out: PD50 (medium protective dose) at the 14th day
Protocol: as §4, §5, §6, §7

[23] = T. mentagrophytes, SDB, 28° C., 7 days, 2A, 3A, 3B tested as nitrates
[24] = A. fumigatus, SDB, 28° C., 7 days, 2A, 3A, 3B tested as nitrates
[25] = C. neoformans, YNB, 35° C., 48 hours, 2A, 3A, 3B tested as nitrates
[26] = C. albicans 1040, YNB, 35° C., 48 hours, 2A, 3A, 3B tested as nitrates
[27] = Cryptococcus neoformans, 48 h, C. neoformans, YNB, 35° C., 48 hours, 2A, 3A, 3B tested as nitrates, read-out: IC50
[28] = Candida albicans, 1040, 48 h, C. albicans 1040, YNB, 35° C., 48 hours, 2A, 3A, 3B tested as nitrates, read-out: IC50

Row | SMILES | ED50 [19] | ED50 [20] | ED50 [3] | ED50 [21] | ED50 [22] | MIC [1, 23] | MIC [2, 24] | IC50 [4, 27] | other results
1 | CC(C)(COC(F)(F)C(F)F)C(O)(Cn1cncn1)c1ccc(F)cc1F (single isomer, unassigned; (+)) [Compound 1B] | – | – | – | – | – | – | – | – | MIC (minimum inhibiting concentration) [1, 23]: 32 mg/L (≈ 80.5 µM); MIC (minimum inhibiting concentration) [2, 24]: > 128 mg/L; PD50 (medium protective dose) at the 14th day [3]: > 2 mg/kg/os; IC50 [4, 25]: 1 mg/L (≈ 2.52 µM); IC50 [5, 26]: 1 mg/L (≈ 2.52 µM)
2 | C[C@@H]1[C@H](O)[C@@H](C)/C=C/C=C/C=C/C=C/C=C/C=C/C=C/[C@H](O[C@@H]2O[C@H](C)[C@@H](O)[C@H](N)[C@@H]2O)C[C@@H]2O[C@](O)(C[C@@H](O)C[C@@H](O)[C@H](O)CC[C@@H](O)C[C@@H](O)CC(=O)O[C@H]1C)C[C@H](O)[C@H]2C(=O)O [Amphotericin B] | – | – | – | – | – | – | – | – | MIC50 [6]: 0.25 mg/L (≈ 0.271 µM); MIC50 [7]: 1 mg/L (≈ 1.08 µM); MIC50 [8]: 8 mg/L (≈ 8.66 µM); MIC50 [9]: 0.03 mg/L (≈ 0.0325 µM); MIC50 [10]: 16 mg/L (≈ 17.3 µM); MIC50 [11]: 0.25 mg/L (≈ 0.271 µM); MIC50 [12]: 16 mg/L (≈ 17.3 µM); MIC50 [13]: 0.12 mg/L (≈ 0.13 µM); MIC50 [14]: 0.06 mg/L (≈ 0.0649 µM); MIC50 [15]: 2 mg/L (≈ 2.16 µM); MIC50 [16]: 1 mg/L (≈ 1.08 µM); MIC50 [17]: 0.06 mg/L (≈ 0.0649 µM); MIC50 [18]: 0.25 mg/L (≈ 0.271 µM)
3 | OC(Cn1cncn1)(Cn1cncn1)c1ccc(F)cc1F [Fluconazole, reference compound] | 22.3 mg/kg | 63.2 mg/kg | 0.61 mg/kg | > 100 mg/kg | – | – | – | – | MIC [1]: 16 mg/L (≈ 52.2 µM); MIC [2]: > 128 mg/L; IC50 ([4]; Cryptococcus neoformans, 48 h): 2 mg/L (≈ 6.53 µM); IC50 ([5]; Candida albicans, 1040, 48 h): 0.5 mg/L (≈ 1.63 µM)
4 | CCC(C)n1ncn(-c2ccc(N3CCN(c4ccc(OCC5COC(Cn6cncn6)(c6ccc(Cl)cc6Cl)O5)cc4)CC3)cc2)c1=O (stereo not shown) [Itraconazole, reference compound] | > 25 mg/kg | > 50 mg/kg | 1.74 mg/kg | > 20 mg/kg | 10.2 mg/kg | – | – | – | –
5 | C[C@@H](COC(F)(F)C(F)F)[C@](O)(Cn1cncn1)c1ccc(F)cc1F [Compound 2A, (-) (2R,3S)-2-(2,4-difluorophenyl)-4-(1,1,2,2-tetrafluoroethoxy)-3-methyl-1-(1H-1,2,4-triazol-1-yl)-2-butanol] | 14.6 mg/kg | 8.84 mg/kg | 0.32 mg/kg | 9.3 mg/kg | 3.5 mg/kg | 0.25 mg/L (≈ 0.652 µM) | 8 mg/L (≈ 20.9 µM) | 0.0312 mg/L (≈ 0.0814 µM) | –
6 | CC(C)(COC(F)(F)C(F)F)C(O)(Cn1cncn1)c1ccc(F)cc1F (single isomer, unassigned; (-)) [Compound 1A, (-) 2-(2,4-difluorophenyl)-4-(1,1,2-tetrafluoroethoxy)-3,3-dimethyl-1-(1H-1,2,4-triazol-1-yl)-2-butanol] | – | – | – | – | – | – | – | – | MIC (minimum inhibiting concentration) [1, 23]: 0.125 mg/L (≈ 0.315 µM); MIC (minimum inhibiting concentration) [2, 24]: 4 mg/L (≈ 10.1 µM); PD50 (medium protective dose) at the 14th day [3]: 0.64 mg/kg/os; IC50 [4, 25]: 0.0078 mg/L (≈ 0.0196 µM); IC50 [5, 26]: 0.0078 mg/L (≈ 0.0196 µM)
7 | C[C@@H](COC(F)(F)C(F)F)[C@](O)(Cn1cncn1)c1ccc(Cl)cc1Cl [Compound 3A, (-) (2R,3S)-2-(2,4-dichlorophenyl)-4-(1,1,2,2-tetrafluoroethoxy)-3-methyl-1-(1H-1,2,4-triazol-1-yl)-2-butanol] | 12.5 mg/kg | 5.48 mg/kg | 0.38 mg/kg | 6.9 mg/kg | 4.5 mg/kg | 0.0625 mg/L (≈ 0.15 µM) | 2 mg/L (≈ 4.81 µM) | 0.0078 mg/L (≈ 0.0187 µM) | IC50 [5, 28]: 0.0078 mg/L (≈ 0.0187 µM)
8 | C[C@H](COC(F)(F)C(F)F)[C@@](O)(Cn1cncn1)c1ccc(Cl)cc1Cl [Compound 3B, (+) (2S,3R)-2-(2,4-dichlorophenyl)-4-(1,1,2,2-tetrafluoroethoxy)-3-methyl-1-(1H-1,2,4-triazol-1-yl)-2-butanol] | – | – | 4.57 mg/kg | – | – | 16 mg/L (≈ 38.4 µM) | > 128 mg/L | 1 mg/L (≈ 2.4 µM) | IC50 [5, 28]: 0.25 mg/L (≈ 0.601 µM)
